{"source": "patent US20250135049A1", "about": "“Methods for Biological Material Labeling and Medical Imaging” (Mayo Foundation for Medical Education and Research, priority 2021, published 2025)", "key": {"[1]": {"assay": "PET imaging and ex vivo biodistribution studies", "format": "in vivo, athymic nude mice", "details": "for SUV Average ± SD: day 7 post-injection, free [^89Zr]ZrCl4, tail vein, n = 3", "procedure": "8-10 weeks old Athymic nude mice (male and female, 1:1) were obtained from Charles Rivers Laboratories or Taconic Biosciences, Inc.\nAfter radiolabeling, the radiolabeled WBCs-0.1-0.6×10^6 (0.03-0.11 MBq); and SCs-0.1-1×10^6 (0.1-0.15 MBq) were injected in a group (n=3) of athymic nude mice, via tail vein injection. PET images were acquired at 4 hours, 2 days, 4 days and 7 days post-injection (p.i.) using microPET scanner. The free [^89Zr] ZrCl4 with radioactivity (0.15-0.19 MBq) was also injected intravenously via tail vein injection. The micro PET images were analyzed and scaled to SUV by image analysis software. The animals were euthanized at 7 days p.i., and organs/tissues were collected to measure standardized uptake value (SUV) in major organs. Animals were euthanized via cardiectomy under anesthesia using isoflurane as approved by the Institutional Animal Care and Use Committee (IACUC) of the Mayo Clinic Rochester MN, USA."}, "[2]": {"test_system": "human decidual stromal cells (hDSCs), bone marrow-derived macrophages (rMac) and human peripheral blood mononuclear cells (hPBMCs)", "details": "Ref. 72; cited from earlier work"}, "[3]": {"assay": "Stability of HPLC-purified [^89Zr]Zr-DBN with and without ascorbic acid (HPLC)", "format": "physicochemical", "details": "for stability of [^89Zr]Zr-DBN: stored at -20° C.", "procedure": "The purified and concentrated [^89Zr] Zr-DBN was stored at −20° C. and stability was tested at 0 hours, 24 hours, and 72 hours post HPLC purification and concentration in comparison with unpurified [^89Zr] Zr-DBN which was also stored at −20° C. To test the stability, the frozen [^89Zr] Zr-DBN was allowed to come to room temperature and reconstituted with ˜100 μL DMSO. The reconstituted [^89Zr] Zr-DBN (˜ 3.7 MBq) was diluted with ˜900 μL neutralized deionized water (pH 7.0) and pH was further adjusted to pH 7.0 using 1M Na2CO3. The stability of reconstituted and neutralized [^89Zr] Zr-DBN was tested using the same HPLC method that was used for [^89Zr] Zr-DBN purification.\nThe HPLC purified [^89Zr] Zr-DBN (˜7.2 mL) was divided into two equal parts of ˜3.6 mL each. In one-part, 25 μL of 200 mg/mL ascorbic acid (Sigma Aldrich, St. Louis, MO, USA) was added. Both ascorbic acid treated, and untreated fractions were concentrated at 0.42 torr and room temperature. […] Zr-DBN purification."}}}
{"molecule": "[Cl][89Zr]([Cl])([Cl])[Cl]", "note": "[[^89Zr]ZrCl4, [^89Zr] ZrCl4]", "values": [{"measurement": "SUV Average ± SD", "setting": "[1]; Bladder", "result": "0.32 ± 0.09"}, {"measurement": "SUV Average ± SD", "setting": "[1]; Blood", "result": "0.12 ± 0.01"}, {"measurement": "SUV Average ± SD", "setting": "[1]; Bone", "result": "9.89 ± 0.4"}, {"measurement": "SUV Average ± SD", "setting": "[1]; Brain", "result": "0.02 ± 0.02"}, {"measurement": "SUV Average ± SD", "setting": "[1]; Heart", "result": "0.26 ± 0.03"}, {"measurement": "SUV Average ± SD", "setting": "[1]; Intestine", "result": "0.09 ± 0.01"}, {"measurement": "SUV Average ± SD", "setting": "[1]; Kidney", "result": "0.49 ± 0.07"}, {"measurement": "SUV Average ± SD", "setting": "[1]; Liver", "result": "0.61 ± 0.07"}, {"measurement": "SUV Average ± SD", "setting": "[1]; Lung", "result": "0.36 ± 0.06"}, {"measurement": "SUV Average ± SD", "setting": "[1]; Muscle", "result": "0.14 ± 0.05"}, {"measurement": "SUV Average ± SD", "setting": "[1]; Pancreas", "result": "0.29 ± 0.02"}, {"measurement": "SUV Average ± SD", "setting": "[1]; Skin", "result": "0.42 ± 0.14"}, {"measurement": "SUV Average ± SD", "setting": "[1]; Spleen", "result": "0.39 ± 0.09"}, {"measurement": "SUV Average ± SD", "setting": "[1]; Urine", "result": "0.08 ± 0.03"}, {"measurement": "distribution of radioactivity on micro PET imaging", "setting": "[1]; intravenous injection, 4 hours, 2 days, 4 days, 7 days", "result": "high accumulation of free ^89Zr in the bones"}]}
{"molecule": "[89Zr+4].[O-]c1cccc2cccnc12.[O-]c1cccc2cccnc12.[O-]c1cccc2cccnc12.[O-]c1cccc2cccnc12", "note": "[[^89Zr] Zr-oxine]", "values": [{"measurement": "apparent efflux of ^89Zr from the labeled cells", "setting": "[2]", "result": "29-38%"}]}
{"molecule": "[^89Zr] zirconium-p-isothiocyanatobenzyl-desferrioxamine [[^89Zr] Zr-DBN]", "values": [{"measurement": "stability of [^89Zr]Zr-DBN", "setting": "[3]; 72 hours post HPLC purification, without ascorbic acid", "result": 66, "unit": "%"}, {"measurement": "stability of [^89Zr]Zr-DBN", "setting": "[3]; 72 hours, with addition of ascorbic acid (25 μL of 200 mg/mL)", "result": "> 82", "unit": "%"}, {"measurement": "enhancement of the 27.1 minutes HPLC peak for [^89Zr]Zr-DBN by ascorbic acid", "setting": "[3]; immediately after concentration, ascorbic acid added before the concentration step", "result": "~12", "unit": "%"}]}
